Where a name gives a salt, the structure may show the parent alone.
Experiments:
[1] = tested on: 48-h-old biofilms of all of the test organisms; experiment: Rapid biofilm eradication, 2-h exposure; format: cell-based; settings: two h of exposure; preformed biofilms
Procedure: Determining rapid biofilm eradication by tetrasodium EDTA, ethanol, and chlorhexidine HCl alone and in combination was performed. After biofilm formation, control pegs (n=6) were removed and analyzed to determine the starting biofilm cell numbers via the drop dilution method. The 48-h old biofilms on the pegs were exposed to different concentrations of test antimicrobials, dissolved in an appropriate growth medium, for two h to evaluate their efficacy alone and in combination. Antimicrobial solutions tested against each organism included each agent alone at the MBEC, double combinations at the FBEC, and triple combinations ranging from 5 to 20% ethanol, 2.5-5 μg/mL chlorhexidine HCl and 1-3% tetrasodium EDTA. Following treatment, pegs were washed twice with sterile PBS, and the biofilm cells were dislodged into recovery medium and enumerated as described above.
The method for rapid biofilm eradication ability of test antimicrobials alone and in combination against 48-h-old biofilms within two h exposure time included (1) choosing different concentrations of test antimicrobials to assess their potency in eradicating preformed biofilms of study organisms within two h. Then (2) the quantitative recovery from biofilms following exposure to the antimicrobial solutions for bacterial strains (FIGS. 9A-9B) and fungal strains (FIG. 5) was evaluated.

[2] = tested on: all test organisms; experiment: MIC, micro broth dilution (summary in text); format: cell-based; settings: planktonic cells, read-out: MICs ranging over all test organisms
Procedure: An assay was made using a minimum inhibitory concentration (MIC) and minimum bactericidal concentration (MBC) and minimum fungicidal concentration (MFC) determination. The MIC was determined by the micro broth dilution method in 96-well plates. […] A 10 μL containing 1×10^5 bacterial cells or 2×10^3 fungal cells were added to each well. The inoculated plates were covered with a lid, sealed with Parafilm, and incubated for 24 h at 37° C. with slight rocking on a tilting platform shaker. After incubation, the optical density at 600 nm (OD 600) of the cultures in each well was measured using an xMark™ Microplate Absorbance Spectrophotometer (Bio-Rad). The MIC was defined as the lowest concentration of antimicrobial compound at which the culture OD600 values were similar to uninoculated control wells. MBCs and MFCs were determined by transferring 100 μL from each well with no apparent growth onto appropriate agar plates, followed by incubation for 24 h at 37° C.

[3] = tested on: Staphylococcus aureus ON89; experiment: FBEC index, checkerboard on biofilms; format: cell-based; settings: for biofilm eradication concentration in combination (FBEC): EDTA + ethanol
Procedure: (§1) In step (4), microtiter plates are incubated at 37° C. for 24 h. then (6), after incubation, the bacterial and fungal cells were dislodged from the pegs into the recovery medium described above.
(§2) Three 10-μL aliquots, for a total of 30 μL from each well of recovery medium, were spotted on MH agar plates and incubated for 24 h at 37° C. […] The FBEC determination is a modification of the FICI.

[4] = tested on: MRSA ON184; experiment: FBEC index, checkerboard on biofilms; format: cell-based, S. aureus; settings: for biofilm eradication concentration in combination (FBEC): EDTA + ethanol
Procedure: as §1, §2

[5] = tested on: MRSA ON184; experiment: MBC/MFC determination; format: cell-based, S. aureus; settings: alone
Procedure: An assay was made using a minimum inhibitory concentration (MIC) and minimum bactericidal concentration (MBC) and minimum fungicidal concentration (MFC) determination. The MIC was determined by the micro broth dilution method in 96-well plates. Serial two-fold dilutions of tetrasodium EDTA (from 2% to 0.015%), ethanol (from 50% to 0.1%) and chlorhexidine HCl (from 100 μg/mL to 0.025 μg/mL) were prepared in MH broth with a final volume of 90 μL per well. A 10 μL containing 1×10^5 bacterial cells or 2×10^3 fungal cells were added to each well. The inoculated plates were covered with a lid, sealed with Parafilm, and incubated for 24 h at 37° C. with slight rocking on a tilting platform shaker. After incubation, the optical density at 600 nm (OD 600) of the cultures in each well was measured using an xMark™ Microplate Absorbance Spectrophotometer (Bio-Rad). […] MBCs and MFCs were determined by transferring 100 μL from each well with no apparent growth onto appropriate agar plates, followed by incubation for 24 h at 37° C.

[6] = tested on: Proteus mirabilis ON153; experiment: FBEC index, checkerboard on biofilms; format: cell-based; settings: for biofilm eradication concentration in combination (FBEC): EDTA + ethanol
Procedure: as §1, §2

Row | SMILES | biofilm eradication at the MBEC alone [1] | MIC [2] [µg/mL] | Chlorhexidine HCl biofilm eradication concentration in combination (FBEC) ([3]; EDTA + chlorhexidine HCl) [µg/mL] | Chlorhexidine HCl biofilm eradication concentration in combination (FBEC) ([4]; EDTA + chlorhexidine HCl) [µg/mL] | MBC/MFC [5] | Chlorhexidine HCl biofilm eradication concentration in combination (FBEC) ([6]; EDTA + chlorhexidine HCl) [µg/mL] | EDTA biofilm eradication concentration in combination (FBEC) ([3]; EDTA + chlorhexidine HCl) [% w/v] | biofilm eradication concentration in combination (FBEC) [3] [% w/v] | EDTA biofilm eradication concentration in combination (FBEC) ([4]; EDTA + chlorhexidine HCl) [% w/v] | biofilm eradication concentration in combination (FBEC) [4] [% w/v] | EDTA biofilm eradication concentration in combination (FBEC) ([6]; EDTA + chlorhexidine HCl) [% w/v] | biofilm eradication concentration in combination (FBEC) [6] [% w/v]
1 | [H]/N=C(\N/C(=N/[H])NCCCCCCNC(=N)NC(=N)Nc1ccc(Cl)cc1)Nc1ccc(Cl)cc1 [Chlorhexidine HCl, 1,6-bis(4′-chlorophenylbiguanide) hexane] | failed to eradicate | 0.1 to 50 | 3.125 | 6.25 | 1.6 µg/mL | 3.125 |  |  |  |  |  | 
2 | O=C([O-])CN(CCN(CC(=O)[O-])CC(=O)[O-])CC(=O)[O-].[Na+].[Na+].[Na+].[Na+] [EDTA, tetrasodium EDTA] | failed to eradicate |  |  |  | 2 % w/v |  | 0.125 | 0.063 | 0.031 | 0.063 | 0.125 | 0.125
3 | CCO [Ethanol, ethanol] | failed to eradicate |  |  |  | 25 % w/v |  |  | 0.8 |  | 1.6 |  | 6.25
